# From paper PMC12040169 (PLOS Biology, 2025)
# Assay: in vitro
# Conditions: human, hela cells, % viability
row,SMILES,"viability at 28.5 h, 10 µM [%]"
1,O=C(COc1cccnc1)N1CCN(c2ncccn2)CC1 [CBK144521],86.5
2,C=CCNC(=O)C1CN(C)CC12CCc1ccccc1C(=O)N2 (centres unmarked) [CBK282401],83
3,CC(=O)Nc1cccc(C(=O)N(Cc2ccccn2)CC2CCCO2)c1 (centres unmarked) [CBK306867],90.5
4,COC(=O)CN1C(=O)S/C(=C/c2cc(C)n(-c3ccc(S(N)(=O)=O)cc3)c2C)C1=O [CBK265249],95.9
5,N#Cc1c(NC(=O)CSc2nnnn2-c2ccc(C(=O)O)cc2)sc2c1CCCC2 [CBK299876],87.6
6,CC(=O)c1ccc(-c2nccnc2NCC2CC2)s1 [CBK037975],104
7,Cc1cc(C)cc(NC(=O)Cc2cc(=O)[nH]c(SCc3ccccc3)n2)c1 [CBK287842],112
8,COC(=O)C1=C(C)N(CCc2ccccc2)C(=O)C1(NC(=O)c1ccccc1)C(F)(F)F (centres unmarked) [CBK267477],86
9,CN1CCN(C(=O)c2ccc3nc(-c4ccccc4)c(-c4ccccc4)nc3c2)CC1 [CBK267257],98.7
10,CSc1nsc(SCC(=O)N(c2ccccc2)c2ccccc2)n1 [CBK269361],95.3
11,O=S(=O)(Nc1nnn[nH]1)c1ccc(-c2cc(C(F)(F)F)on2)s1 [CBK062393],96.9
12,CCNC(=O)N[C@H]1CC[C@]2(C)CCC([C@H](C)C(=O)N3CCCC3)[C@H](O)[C@H]2[C@@H]1C (some centres unmarked) [CBK289456],116
13,NC(=O)c1ccccc1NC(=O)c1ccc(C(=O)Nc2ccccc2C(N)=O)cc1 [CBK261167],106
14,Cc1ccc(C2(C(=O)N(C)CCN3CCCCC3)CCOCC2)cc1 [CBK281833],107
15,O=C1CC(SCc2nc3ccccc3[nH]2)C(=O)N1c1cccc(Cl)c1 (centres unmarked) [CBK266731],94.5
16,COC(=O)c1sc(N2CCCC2)c(S(=O)(=O)C(C)C)c1N [CBK009463],87.9
17,Cc1cccc(C(C)CNC(=O)N2CCC(Cc3cnn(C)c3)C2)c1 (centres unmarked) [CBK305301],96.9
18,CCOC(=O)c1ccc(S(=O)(=O)Nc2cc(C(=O)O)ccc2F)cc1 [CBK295308],84
19,O=C(O)CCCNS(=O)(=O)c1ccc([N+](=O)[O-])cc1 [CBK261317],93.1
20,Fc1ccc(Oc2nccnc2N2CCN(Cc3ccc(Cl)c(Cl)c3)CC2)cc1 [CBK083007T],92.3
21,Cc1nn(C)c(Cl)c1S(=O)(=O)Nc1ccnn1C [CBK062072],85.6

row,SMILES,"viability at 28.5 h, 10 µM [%]"
1,O=C(NC(c1ccc(Cl)cc1)c1cccnc1)C1CCN(C(=O)C2CC2)CC1 (centres unmarked) [CBK059686],90.4
2,CC(=O)c1ccc(NC(=O)C2C3C=CC(C3=C(c3ccccc3)c3ccccc3)C2C(=O)O)cc1 (centres unmarked) [CBK265696],98.4
3,CCn1c(=O)sc2cc(Br)ccc21 [CBK026526],97
4,NC(=O)CN1CCC2(CC1)CN(CC(N)=O)c1ccccc12 [CBK126789],100
5,CCCn1ncc(C(=O)N2CCN(CC3CCCN(C)C3)CC2)c1C (centres unmarked) [CBK307122],89.1
6,Cn1nc(CN2CCNC(=O)C2c2ccccc2C(F)(F)F)[nH]c1=O (centres unmarked) [CBK306269],91.3
7,c1ccc(CN2CCN(CCN3CCn4c3nc3ccccc34)CC2)cc1 [CBK265472B],97.5
8,COc1ccc(-c2nc(C3CCN(C(=O)NC(C)(C)C)CC3)n3ccccc23)cc1 [CBK047080],97.4
9,COC(=O)c1ccc(CN2CCC(Oc3nccnc3OCc3ccc(Cl)c(Cl)c3)CC2)o1 [CBK153782],84.2
10,COC(=O)[C@H]1CN(C(=O)C2CC(=O)N(C)C2)C[C@@H]1c1ccc(F)cc1 (some centres unmarked) [CBK283521],93
11,COc1ccc(Cn2nc(NC(=O)Nc3c(C)noc3C)c3ccccc32)cc1 [CBK048528],88.9
12,O=C(O)c1c(Br)c(Br)c(Br)c(Br)c1C(=O)NCCc1ccccc1 [CBK261702],90.7
13,O=C(/C=C/c1ccccc1)N/C(=C/c1ccccc1)C(=O)Nc1ccc2ccccc2c1 [CBK265023],89.6
14,CCOCCn1nc(C)cc1C(=O)NC(CC)c1cn2cccnc2n1 (centres unmarked) [CBK307377],79
15,Cn1cncc1CN(CCCn1ccnc1)Cc1ccccc1F [CBK282960],85
16,O=C(CCCn1cccn1)N1CCOC(c2ccc(Cl)cc2)C1 (centres unmarked) [CBK304643],79.1
17,O=S1(=O)C=C(N2CCCCCC2)CC1 [CBK025571C],85.7
18,CC(=O)N1CC[C@H]2NC(=O)CNC(=O)C3(CCCC[C@H]2C1)CCN(C(=O)c1ccc(C)nc1)CC3 [CBK292172],94.7
19,O=[N+]([O-])c1cccc(NS(=O)(=O)c2ccc(Cl)c(Cl)c2)c1 [CBK044396],78.5
20,OCc1ccc(-n2cc(-c3ccc(F)cc3F)nn2)cc1 [CBK112982],89.2
21,CC1(NC(=O)CC(c2ccncc2)c2c[nH]c3ccccc23)CCC1 (centres unmarked) [CBK281610],88.8

row,SMILES,"viability at 28.5 h, 10 µM [%]"
1,O=C(c1ccc(F)cc1)[C@H]1CCCN(C(=O)c2ccco2)C1 [CBK284328],80.7
2,N#CCCn1cc(C(=O)N2CCOCC2)c(-c2cc3ccccc3o2)n1 [CBK306203],104
3,O=C(Cn1cc(C(=O)NCc2ccccc2)ccc1=O)NC1(c2ccccc2)CCCC1 [CBK285753],95.7
4,Cc1cc(C(=O)Nc2cccc(-c3nc4cc(Cl)ccc4o3)c2C)ccc1[N+](=O)[O-] [CBK262949],91.8
5,Nc1ncc(-c2cccc3ncccc23)nc1NC1CCOCC1 [CBK063852],101
6,CC(=O)c1ccc(-c2cc(N3CCN(C(=O)c4ccco4)CC3)ncn2)s1 [CBK036999],105
7,FC(F)(F)c1cccc(OC2CCCNC2)n1 (centres unmarked) [CBK113290],93.2
8,Cc1cnc2c(c1)cc(C1CCOCC1)n2CC(=O)NC1CCCC1 [CBK284755],103
9,Cc1ccc(C(=O)NCCCNC(=O)c2ccncc2)cc1 [CBK269477],86
10,CCN1C(=O)c2ccccc2C(=O)[C@@]2(C)CN(CC(C)C)C[C@@H]12 [CBK283479],102
11,O=C(CNC(=O)C1CC=CCC1C(=O)O)Nc1ccc(N2CCCCCC2)cc1 (centres unmarked) [CBK295603],90.8
12,O=[N+]([O-])c1cc(-c2nc(-c3cccs3)c(-c3cccs3)[nH]2)ccc1Br [CBK265009],102
13,CCNC(=O)N1CCC[C@@H](O)[C@H](NC(=O)c2ccc(OCc3c(C)noc3C)cc2)C1 [CBK289068],84.2
14,O=C(O)C1CCN(C(=O)NCCOc2ccccc2)CC1 [CBK156072],82.2
15,Cc1occc1-c1nnc(SCC(=O)Nc2ccccc2)n1C [CBK270308],84.9
16,COc1cncc(-c2cc(Nc3ccc(NS(=O)(=O)c4ccc(C)cc4)cc3)ncn2)c1 [CBK090988],94.1
17,COc1ccc(CN2CCCC(c3nccnc3-c3cccc(NC(C)=O)c3)C2)cc1 (centres unmarked) [CBK286135],104
18,COc1cc(Nc2cc(-c3ccc(NC(C)=O)cc3)ncn2)cc(OC)c1OC [CBK090710],103
19,Cc1ccc(-c2nnc(CN3C(=O)C4(CC(=O)N(C)C4=O)c4cc(F)ccc43)o2)cc1 (centres unmarked) [CBK075453],110
20,O=c1cc(N2CCCCC2)cnn1Cc1nccn1C1CC1 [CBK307484],89.6
